EC50 and IC50 data for three compounds are collected here from ChEMBL document CHEMBL1201862, “PubChem BioAssay data set” (2004).

Calls of active or inactive are those of the source.

Test [1] concerns the target T1, RNA-binding protein pos-1 (Caenorhabditis elegans, UniProt G5EF15).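 Note: purified POS-1 fused to maltose binding protein made in E. coli; potency of compounds blocking POS-1 binding to fluorescent RNA.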
T1 sequence (G5EF15 whole entry): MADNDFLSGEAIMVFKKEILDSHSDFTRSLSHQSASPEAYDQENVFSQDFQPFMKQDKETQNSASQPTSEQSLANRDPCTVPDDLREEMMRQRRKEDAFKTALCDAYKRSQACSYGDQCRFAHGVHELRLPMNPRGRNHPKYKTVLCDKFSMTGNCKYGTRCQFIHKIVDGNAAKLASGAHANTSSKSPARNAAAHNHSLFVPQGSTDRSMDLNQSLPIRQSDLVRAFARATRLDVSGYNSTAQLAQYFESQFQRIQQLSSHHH
The test can be described thus: inhibitors of POS-1/mex-3 RNA binding, dose response, biochemical, fluorescence polarization (AID 1964). (Fluorescence polarisation rises when a labelled molecule tumbles more slowly, as on binding a larger partner.)

In test [2] the test system is HEK293. The test can be described thus: cells. The format is functional, cell-based. As to conditions: Homo sapiens.
The target in test [3] is T2, Nuclear receptor subfamily 0 group B member 1 (Homo sapiens, UniProt P51843).
T2 sequence (P51843 whole entry): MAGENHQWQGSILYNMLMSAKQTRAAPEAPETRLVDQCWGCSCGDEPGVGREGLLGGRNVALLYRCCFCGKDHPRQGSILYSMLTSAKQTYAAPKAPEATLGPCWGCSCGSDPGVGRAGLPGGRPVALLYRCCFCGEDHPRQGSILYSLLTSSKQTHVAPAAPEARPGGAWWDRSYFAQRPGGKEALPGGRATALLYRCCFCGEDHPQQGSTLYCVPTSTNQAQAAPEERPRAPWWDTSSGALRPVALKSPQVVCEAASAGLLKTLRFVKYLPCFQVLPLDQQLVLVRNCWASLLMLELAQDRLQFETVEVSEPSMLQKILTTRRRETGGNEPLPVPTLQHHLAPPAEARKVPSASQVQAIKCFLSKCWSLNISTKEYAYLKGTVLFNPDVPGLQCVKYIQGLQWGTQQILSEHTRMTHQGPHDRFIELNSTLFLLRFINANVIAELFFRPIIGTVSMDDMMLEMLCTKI
In words: Luminescence-based cell-based high throughput dose response assay for inhibitors of the orphan nuclear receptor subfamily 0, group B, member 1 (DAX1; NR0B1). [Related pubchem assays (depositor defined):AID504766, AID504790]. It is filed as functional.

The nature of test [4]: Luminescence-based cell-based high throughput dose response assay to identify activators of the DAF-12 from the parasite S. stercoralis (ssDAF-12). The format is functional.
For test [5], the target named is T3, Short transient receptor potential channel 4 (Mus musculus, UniProt Q9QUQ5).
T3 sequence (Q9QUQ5 whole entry): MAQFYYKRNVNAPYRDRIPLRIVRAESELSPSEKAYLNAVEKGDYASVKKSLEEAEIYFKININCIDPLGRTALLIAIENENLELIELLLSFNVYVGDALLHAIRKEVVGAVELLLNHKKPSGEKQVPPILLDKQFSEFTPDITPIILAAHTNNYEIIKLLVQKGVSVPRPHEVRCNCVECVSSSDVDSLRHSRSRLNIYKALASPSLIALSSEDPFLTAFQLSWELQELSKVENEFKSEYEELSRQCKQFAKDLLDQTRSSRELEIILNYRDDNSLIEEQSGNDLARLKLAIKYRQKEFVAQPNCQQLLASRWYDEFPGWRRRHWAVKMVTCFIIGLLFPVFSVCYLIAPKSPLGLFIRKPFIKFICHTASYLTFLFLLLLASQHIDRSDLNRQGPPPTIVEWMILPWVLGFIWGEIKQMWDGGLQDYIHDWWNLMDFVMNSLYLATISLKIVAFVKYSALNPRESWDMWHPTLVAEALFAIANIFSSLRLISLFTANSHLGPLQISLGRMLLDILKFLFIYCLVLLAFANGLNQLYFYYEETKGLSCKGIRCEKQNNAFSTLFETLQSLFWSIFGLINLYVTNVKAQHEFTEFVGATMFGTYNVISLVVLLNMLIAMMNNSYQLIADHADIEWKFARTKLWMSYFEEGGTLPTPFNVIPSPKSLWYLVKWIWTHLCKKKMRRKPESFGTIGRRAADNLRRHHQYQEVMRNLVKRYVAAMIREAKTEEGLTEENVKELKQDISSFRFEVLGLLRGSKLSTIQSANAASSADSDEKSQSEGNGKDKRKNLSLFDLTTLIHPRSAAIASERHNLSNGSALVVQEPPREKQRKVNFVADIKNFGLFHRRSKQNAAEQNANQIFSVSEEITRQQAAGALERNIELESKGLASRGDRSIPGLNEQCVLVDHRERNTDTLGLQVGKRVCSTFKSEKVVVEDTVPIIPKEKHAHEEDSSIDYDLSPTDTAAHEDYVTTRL
In words: mouse TRPC4 channel inhibitors, dose response, cell-based, HEK293 TRPC4/mu-opioid, Fluo-4 calcium (AID 434942).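 Note: potency of inhibitors blocking the TRPC4 calcium response.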 It is filed as functional.

Usually EC50 stands for the midpoint of the concentration-response curve. With `O=C(O)CSc1cc(NS(=O)(=O)c2ccc(Cl)cc2)c2ccccc2c1O`, in test [1], the EC50 was 36.8 µM (active).
As usually defined, the IC50 is the midpoint of a concentration-inhibition curve. Consider `Oc1ccccc1/C=C/c1noc(-c2ccccc2O)n1`, for which the values for the IC50 in test [2], in test [3] and in test [4] were > 67.5 µM (inactive), > 67.5 µM (inactive) and > 67.6 µM (inactive), respectively.
As to `Cc1nn(-c2ccccc2)c(Cl)c1CN(C(=O)CCl)c1ccc(Cl)cc1`, the EC50 in test [5] is 0.237 µM (active).
